Columns and labels:
[1] = test system: human airway epithelial cells (HAECs); assay: High-throughput sequencing (HTS) of miRNAs at four stages of differentiation of HAECs; conditions: for Modulation (ratio of the level of intensity of expression in log2 in two stages of differentiation) measured by high-throughput sequencing, D7 − D0 / Modulation (ratio of the level of intensity of expression in log2 in two stages of differentiation) measured by high-throughput sequencing, FC − D7 / Modulation (ratio of the level of intensity of expression in log2 in two stages of differentiation) measured by high-throughput sequencing, WD − D0 / Modulation (ratio of the level of intensity of expression in log2 in two stages of differentiation) measured by high-throughput sequencing, WD − FC / Level of intensity of expression in log2 measured by high-throughput sequencing, D0 / Level of intensity of expression in log2 measured by high-throughput sequencing, D7 / Level of intensity of expression in log2 measured by high-throughput sequencing, FC / Level of intensity of expression in log2 measured by high-throughput sequencing, WD: Table VI; for Modulation (ratio of the level of intensity of expression in log2 in two stages of differentiation), D7 − D0 / Modulation (ratio of the level of intensity of expression in log2 in two stages of differentiation), FC − D7 / Modulation (ratio of the level of intensity of expression in log2 in two stages of differentiation), WD − FC / Abundance (%), D0 / Abundance (%), D7 / Abundance (%), FC / Abundance (%), WD: HTS; for Abundance (%), D0: ALI-D0; for Abundance (%), D7: ALI-D7; for Abundance (%), FC: ALI-FC; for Abundance (%), WD: ALI-WD; for Level of intensity of expression in log2 At the differentiated stage (WD) measured in HTS: healthy human airway epithelial tissue; for Level of intensity of expression in log2 measured by high-throughput sequencing, D0: stage D0; for Level of intensity of expression in log2 measured by high-throughput sequencing, D7: stage D7; for Level of intensity of expression in log2 measured by high-throughput sequencing, FC: stage FC; for Level of intensity of expression in log2 At the differentiated stage (WD) measured in HTS / Level of intensity of expression in log2 measured by high-throughput sequencing, WD: stage WD
Summary of the method: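 Total RNA including small RNAs was taken from air-liquid interface cultures at ALI-D0, ALI-D7, ALI-FC (first cilia, ~14 days) and ALI-WD (~21 days). SOLiD small-RNA libraries were sequenced, and 5p/3p reads were normalized to 10^6 sequences and expressed as percentage abundance.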

[2] = test system: human airway epithelial cells (HAECs); assay: Agilent miRNA chips, miRNA expression at four stages of differentiation of HAECs; conditions: for Modulation (ratio of the level of intensity of expression in log2 in two stages of differentiation) measured with the Agilent chips, D7 − D0 / Modulation (ratio of the level of intensity of expression in log2 in two stages of differentiation) measured with the Agilent chips, FC − D7 / Modulation (ratio of the level of intensity of expression in log2 in two stages of differentiation) measured with the Agilent chips, WD − D0 / Modulation (ratio of the level of intensity of expression in log2 in two stages of differentiation) measured with the Agilent chips, WD − FC / Level of intensity of expression in log2 measured with the Agilent chips, D0 / Level of intensity of expression in log2 measured with the Agilent chips, D7 / Level of intensity of expression in log2 measured with the Agilent chips, FC / Level of intensity of expression in log2 measured with the Agilent chips, WD: Table VI; for Modulation (ratio of the level of intensity of expression in log2 at two stages of differentiation), FC − D7 / Modulation (ratio of the level of intensity of expression in log2 at two stages of differentiation), WD − FC: Agilent miRNA chips, Table V; for Level of intensity of expression in log2 measured with the Agilent chips, D0: stage D0; for Level of intensity of expression in log2 measured with the Agilent chips, D7: stage D7; for Level of intensity of expression in log2 measured with the Agilent chips, FC: stage FC; for Level of intensity of expression in log2 measured with the Agilent chips, WD: stage WD
Summary of the method: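 Arrays probing 866 human and 89 human viral miRNAs were used in parallel with sequencing. The same patients' RNA was labelled and hybridized following the manufacturer's protocol.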

[3] = test system: basal cells and pyramidal cells of the airway epithelium; assay: miRNA expression in sorted basal cells versus pyramidal cells (ciliated + secretory), HTS and Agilent chips; parameters: species or system human; conditions: for Modulation of expression of the miRNAs in pyramidal cells (323(−)) relative to basal cells 323(+): HTS and Agilent chips; for Intensity of the level of expression in log2 in pyramidal cells (323(−)): pyramidal cells (ciliated + secretory)
Summary of the method: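 miRNA repertoires measured by high-throughput sequencing or Agilent arrays on total RNA from sorted airway epithelial populations of 3 donors. Sorting used CD151-PE and anti-tissue factor-FITC: double-positive basal versus double-negative ciliated/secretory cells, with DAPI-stained and aggregated cells excluded.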

Substance | Modulation (ratio of the level of intensity of expression in log2 in two stages of differentiation) measured by high-throughput sequencing, D7 − D0 [1] | Modulation (ratio of the level of intensity of expression in log2 in two stages of differentiation) measured by high-throughput sequencing, FC − D7 [1] | Modulation (ratio of the level of intensity of expression in log2 in two stages of differentiation) measured by high-throughput sequencing, WD − D0 [1] | Modulation (ratio of the level of intensity of expression in log2 in two stages of differentiation) measured by high-throughput sequencing, WD − FC [1] | Level of intensity of expression in log2 At the differentiated stage (WD) measured in HTS [1] | Level of intensity of expression in log2 measured by high-throughput sequencing, D0 [1] | Level of intensity of expression in log2 measured by high-throughput sequencing, D7 [1] | Level of intensity of expression in log2 measured by high-throughput sequencing, FC [1] | Level of intensity of expression in log2 measured by high-throughput sequencing, WD [1] | Modulation (ratio of the level of intensity of expression in log2 in two stages of differentiation) measured with the Agilent chips, D7 − D0 [2] | Modulation (ratio of the level of intensity of expression in log2 at two stages of differentiation), FC − D7 [2] | Modulation (ratio of the level of intensity of expression in log2 in two stages of differentiation) measured with the Agilent chips, FC − D7 [2] | Modulation (ratio of the level of intensity of expression in log2 in two stages of differentiation) measured with the Agilent chips, WD − D0 [2] | Modulation (ratio of the level of intensity of expression in log2 at two stages of differentiation), WD − FC [2] | Modulation (ratio of the level of intensity of expression in log2 in two stages of differentiation) measured with the Agilent chips, WD − FC [2] | Level of intensity of expression in log2 measured with the Agilent chips, D0 [2] | Level of intensity of expression in log2 measured with the Agilent chips, D7 [2] | Level of intensity of expression in log2 measured with the Agilent chips, FC [2] | Level of intensity of expression in log2 measured with the Agilent chips, WD [2] | Modulation of expression of the miRNAs in pyramidal cells (323(−)) relative to basal cells 323(+) [3] | other results
hsa-miR-99a: human miRNA, SEQ ID No. 52 (AACCCGUAGAUCCGAUCUUGUG; expressed or natural sequence; listed as Homo sapiens) | 1.43 log2 | 0.77 log2 | 2.88 log2 | 0.69 log2 | 9.00 log2 | 9.77 log2 | 11.19 log2 | 11.96 log2 | 12.65 log2 | 2.33 log2 | 0.77 log2 | 0.77 log2 | 3.28 log2 | 0.19 log2 | 0.19 log2 | 5.02 log2 | 7.35 log2 | 8.12 log2 | 8.31 log2 | 0.99 | Modulation (ratio of the level of intensity of expression in log2 in two stages of differentiation), D7 − D0 [1]: 1.43 log2; Modulation (ratio of the level of intensity of expression in log2 in two stages of differentiation), FC − D7 [1]: 0.77 log2; Modulation (ratio of the level of intensity of expression in log2 in two stages of differentiation), WD − FC [1]: 0.69 log2; Abundance (%), D0 [1]: 0.19%; Abundance (%), D7 [1]: 0.52%; Abundance (%), FC [1]: 0.85%; Abundance (%), WD [1]: 1.03%; Intensity of the level of expression in log2 in basal cells (323(+)) [3]: 5.42 log2; Intensity of the level of expression in log2 in pyramidal cells (323(−)) [3]: 6.40 log2
hsa-miR-100: human miRNA, SEQ ID No. 1 (AACCCGUAGAUCCGAACUUGUG; expressed or natural sequence; listed as Homo sapiens) | −1.05 log2 | −2.36 log2 | −1.72 log2 | 1.69 log2 | 9.00 log2 | 10.72 log2 | 9.67 log2 | 7.32 log2 | 9.00 log2 | −0.46 log2 | −1.25 log2 | −1.25 log2 | −1.49 log2 | 0.22 log2 | 0.22 log2 | 8.00 log2 | 7.55 log2 | 6.29 log2 | 6.52 log2 | 1.62 | Intensity of the level of expression in log2 in basal cells (323(+)) [3]: 3.28 log2; Intensity of the level of expression in log2 in pyramidal cells (323(−)) [3]: 4.90 log2
hsa-miR-106b: human miRNA, SEQ ID No. 2 (UAAAGUGCUGACAGUGCAGAU; expressed or natural sequence; listed as Homo sapiens) | 1.33 log2 | −0.28 log2 | 0.96 log2 | −0.09 log2 | 5.39 log2 | 4.43 log2 | 5.76 log2 | 5.48 log2 | 5.39 log2 | 1.39 log2 | −0.53 log2 | −0.53 log2 | 0.69 log2 | −0.18 log2 | −0.18 log2 | 8.08 log2 | 9.47 log2 | 8.94 log2 | 8.77 log2 | −2.05 | Intensity of the level of expression in log2 in basal cells (323(+)) [3]: 7.22 log2; Intensity of the level of expression in log2 in pyramidal cells (323(−)) [3]: 5.16 log2
hsa-miR-125a-5p: human miRNA, SEQ ID No. 3 (UCCCUGAGACCCUUUAACCUGUGA; expressed or natural sequence; listed as Homo sapiens) | 0.64 log2 | −0.27 log2 | 1.16 log2 | 0.79 log2 | 14.08 log2 | 12.92 log2 | 13.55 log2 | 13.29 log2 | 14.08 log2 | 1.29 log2 | −0.46 log2 | −0.46 log2 | 0.79 log2 | −0.04 log2 | −0.04 log2 | 7.37 log2 | 8.66 log2 | 8.20 log2 | 8.15 log2 | −0.05 | Modulation (ratio of the level of intensity of expression in log2 in two stages of differentiation), D7 − D0 [1]: 0.64 log2; Modulation (ratio of the level of intensity of expression in log2 in two stages of differentiation), FC − D7 [1]: −0.27 log2; Modulation (ratio of the level of intensity of expression in log2 in two stages of differentiation), WD − FC [1]: 0.79 log2; Abundance (%), D0 [1]: 1.69%; Abundance (%), D7 [1]: 2.64%; Abundance (%), FC [1]: 2.13%; Abundance (%), WD [1]: 2.79%; Intensity of the level of expression in log2 in basal cells (323(+)) [3]: 6.63 log2; Intensity of the level of expression in log2 in pyramidal cells (323(−)) [3]: 6.58 log2

— patent US9023821B2, “Use of MicroRNA for treating diseases associated with a dysfunction of the cilia in multiciliated epithelial cells” (Centre National de la Recherche Scientifique, priority 2009, dated 2015)
